Assay results published in US20250230193A1, “CYCLIC COMPOUND HAVING SELECTIVE KRAS INHIBITORY EFFECT ON HRAS AND NRAS” (CHUGAI SEIYAKU KABUSHIKI KAISHA, priority 2022, published 2025).
Where a SMILES comes first, the peptide text is derived from it. Bridges are numbered along the chain shown (N, C = ends). [ ]: non-standard residue; d: D form. The star is where a group is joined. hPhe(3-Cl-4-CF3) = N[C@@H](CCc1ccc(C(F)(F)F)c(Cl)c1)C(=O)O; NPrPhe(4-CF3) = CCCN[C@@H](Cc1ccc(C(F)(F)F)cc1)C(=O)O; Pip(4,4-F2) = O=C(O)[C@@H]1CC(F)(F)CCN1; NMeGly(cPent) = CN[C@H](C(=O)O)C1CCCC1; Hyp = O=C(O)[C@@H]1C[C@@H](O)CN1; NMeD = CN[C@@H](CC(=O)O)C(=O)O; NMeL = CN[C@@H](CC(C)C)C(=O)O; Morpholide = C1CN(*)CCO1; NMeA = CN[C@@H](C)C(=O)O; Ac5c = NC1(C(=O)O)CCCC1; Aze = O=C(O)[C@@H]1CCN1; Ac4c = NC1(C(=O)O)CCC1; Aib = CC(C)(N)C(=O)O; Sar = CNCC(=O)O

How the values were obtained:
[1] = biological target: GDP-bound NRAS wild-type protein (Homo sapiens, UniProt P01111); assay: Binding to NRAS by surface plasmon resonance (SPR), Single Cycle Kinetics; conditions: SPR; for NRAS/KRAS (ratio of KD value for NRAS to KD value for KRAS) / NRAS/KRAS (ratio of KD value with respect to NRAS to KD value with respect to KRAS): GDP-bound NRAS wild-type vs GDP-bound KRAS wild-type
[2] = biological target: GDP-bound HRAS wild-type protein (Homo sapiens, UniProt P01112); assay: Binding to HRAS by surface plasmon resonance (SPR), Single Cycle Kinetics; conditions: SPR; for HRAS/KRAS (ratio of KD value for HRAS to KD value for KRAS) / HRAS/KRAS (ratio of KD value with respect to HRAS to KD value with respect to KRAS): GDP-bound HRAS wild-type vs GDP-bound KRAS wild-type
Sequence of GDP-bound HRAS wild-type protein (P01112 whole entry): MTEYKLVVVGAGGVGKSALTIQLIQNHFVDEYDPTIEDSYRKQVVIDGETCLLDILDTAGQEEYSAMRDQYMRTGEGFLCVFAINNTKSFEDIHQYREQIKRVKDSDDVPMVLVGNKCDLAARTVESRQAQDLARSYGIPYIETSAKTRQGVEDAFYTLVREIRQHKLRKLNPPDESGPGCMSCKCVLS

Sequence of GDP-bound NRAS wild-type protein (P01111 whole entry): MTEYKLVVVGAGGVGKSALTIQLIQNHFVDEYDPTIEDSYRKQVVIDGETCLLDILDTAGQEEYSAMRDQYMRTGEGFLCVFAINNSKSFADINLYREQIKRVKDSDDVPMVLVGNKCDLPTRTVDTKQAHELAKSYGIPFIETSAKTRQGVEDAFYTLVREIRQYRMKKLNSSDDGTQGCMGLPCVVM

CCCN1C(=O)[C@@H]2CCN2C(=O)[C@H](C)N(C)C(=O)[C@H]([C@@H](C)CC)NC(=O)[C@H](CC(C)C)N(C)C(=O)C[C@@H](C(=O)N2CCOCC2)N(C)C(=O)[C@H](C2CCCC2)N(C)C(=O)C(C)(C)NC(=O)[C@@H]2CCCN2C(=O)[C@H](CCc2ccc(C(F)(F)F)c(Cl)c2)NC(=O)CN(C)C(=O)[C@@H]1Cc1ccc(C(F)(F)F)cc1 [PP0225] ([NMeL]I[NMeA][Aze][NPrPhe(4-CF3)][Sar][hPhe(3-Cl-4-CF3)]P[Aib][NMeGly(cPent)][NMeD]-Morpholide; lactam N-11) was tested, and the “NRAS/KRAS (ratio of KD for GDP-bound NRAS wild-type to KD for KRAS)” value [1] was “C (A compound having a KD ratio of 0.1 or more and less than 3 is denoted as C)” and the “HRAS/KRAS (ratio of KD for GDP-bound HRAS wild-type to KD for KRAS)” value [2] was “C (A compound having a KD ratio of 0.1 or more and less than 3 is denoted as C)”.
In the case of CCC[C@H]1C(=O)N[C@@H]([C@@H](C)CC)C(=O)N(C)CC(=O)N(C)[C@H]2C/C=C\CCN(C2=O)[C@@H](Cc2ccc(C(F)(F)F)cc2)C(=O)N(C)CC(=O)N[C@@H](CCc2cc(F)c(C(F)(F)F)c(F)c2)C(=O)N2C[C@H](OCC)C[C@H]2C(=O)NC2(CCC2)C(=O)N(C)[C@@H](C2CCCC2)C(=O)N(C)[C@H](C(=O)N(C)CC)CC(=O)N1C [PP1304], the “NRAS/KRAS (ratio of KD value for GDP-bound NRAS wild-type protein to KD value for KRAS)” value ([1]; KD ratio class) is reported as “A (a compound having 10 or more and less than 20 is denoted as A)” and the “HRAS/KRAS (ratio of KD value for GDP-bound HRAS wild-type protein to KD value for KRAS)” value ([2]; KD ratio class) is reported as “A (a compound having 10 or more and less than 20 is denoted as A)”.
With CCCN1C(=O)CN(C)C(=O)CN(C)C(=O)[C@H]([C@@H](C)CC)NC(=O)[C@H](CC(C)C)N(C)C(=O)C[C@@H](C(=O)N2CCOCC2)N(C)C(=O)[C@H](C2CCCC2)N(C)C(=O)C2(CCCC2)NC(=O)[C@@H]2CC(F)(F)CCN2C(=O)[C@H](CCc2ccc(C(F)(F)F)c(Cl)c2)NC(=O)CN(C)C(=O)[C@@H]1Cc1ccc(C(F)(F)F)cc1 [PP0264] ([NMeL]I[Sar][Sar][NPrPhe(4-CF3)][Sar][hPhe(3-Cl-4-CF3)][Pip(4,4-F2)][Ac5c][NMeGly(cPent)][NMeD]-Morpholide; lactam N-11) the “NRAS/KRAS (ratio of KD for GDP-bound NRAS wild-type to KD for KRAS)” value [1] was “B (a compound having 3 or more and less than 10 is denoted as B)” and the “HRAS/KRAS (ratio of KD for GDP-bound HRAS wild-type to KD for KRAS)” value [2] was “C (A compound having a KD ratio of 0.1 or more and less than 3 is denoted as C)”.
In the case of CCC[C@H]1C(=O)N[C@@H]([C@@H](C)CC)C(=O)N(C)CC(=O)N(C)[C@H]2C/C=C\CCN(C2=O)[C@@H](Cc2ccc(C)cc2)C(=O)N(C)CC(=O)N[C@@H](CCc2ccc(C(F)(F)F)c(OC)c2)C(=O)N2C[C@H](C)C[C@H]2C(=O)NC2(CC(C)(C)C2)C(=O)N(C)[C@@H](C2CCCC2)C(=O)N(C)[C@H](C(=O)N(C)C)CC(=O)N1C [PP1890], the “NRAS/KRAS (ratio of KD value for NRAS to KD value for KRAS)” value [1] is reported as “A (a compound having 10 or more and less than 20 is denoted as A)” and the “HRAS/KRAS (ratio of KD value for HRAS to KD value for KRAS)” value [2] is reported as “B (a compound having 3 or more and less than 10 is denoted as B)”.
For CCC[C@H]1C(=O)N[C@@H](C2CCCC2)C(=O)N(C)CC(=O)N(C)[C@H]2C/C=C\CCN(C2=O)[C@@H](Cc2ccc(C)cc2)C(=O)N(C)CC(=O)N[C@@H](CCc2cc(F)c(C(F)(F)F)c(F)c2)C(=O)N2CC3(CC3)C[C@H]2C(=O)NC2(CC(C)(C)C2)C(=O)N(C)[C@@H](CC(C)(C)C)C(=O)N(C)[C@H](C(=O)N(C)C)CC(=O)N1C [PP2999], the “NRAS/KRAS (ratio of KD value with respect to GDP-bound NRAS wild-type protein to KD value with respect to KRAS)” value ([1]; GDP-bound wild-type proteins) was “AA (a compound having 20 or more is denoted as AA)” and the “HRAS/KRAS (ratio of KD value with respect to GDP-bound HRAS wild-type protein to KD value with respect to KRAS)” value ([2]; GDP-bound wild-type proteins) was “A (a compound having 10 or more and less than 20 is denoted as A)”.
In the case of CCCN1C(=O)[C@@H]2CCN2C(=O)[C@H](C)N(C)C(=O)[C@H]([C@@H](C)CC)NC(=O)[C@H](CC(C)C)N(C)C(=O)C[C@@H](C(=O)N(C)C)NC(=O)[C@H](C2CCCC2)N(C)C(=O)C2(CCC2)NC(=O)[C@@H]2C[C@@H](OCC)CN2C(=O)[C@H](CCc2ccc(C(F)(F)F)c(Cl)c2)NC(=O)CN(C)C(=O)[C@@H]1Cc1ccc(C(F)(F)F)cc1 [PP0384] ([NMeL]I[NMeA][Aze][NPrPhe(4-CF3)][Sar][hPhe(3-Cl-4-CF3)][Hyp](Et)[Ac4c][NMeGly(cPent)]D-NMe2; lactam N-11), the “NRAS/KRAS (ratio of KD for GDP-bound NRAS wild-type to KD for KRAS)” value [1] is reported as “C (A compound having a KD ratio of 0.1 or more and less than 3 is denoted as C)” and the “HRAS/KRAS (ratio of KD for GDP-bound HRAS wild-type to KD for KRAS)” value [2] is reported as “B (a compound having 3 or more and less than 10 is denoted as B)”.
In the case of CC[C@H](C)[C@@H]1NC(=O)[C@H](COC)N(C)C(=O)C[C@@H](C(=O)N(C)C)N(C)C(=O)[C@H](C2CCCC2)N(C)C(=O)C2(CC(C)(C)C2)NC(=O)[C@@H]2CC(F)(F)CN2C(=O)[C@H](CCc2cc(F)c(C(F)(F)F)c(F)c2)NC(=O)CN(C)C(=O)[C@H](Cc2ccc(C(F)(F)F)cc2)N2CC/C=C\C[C@@H](C2=O)N(C)C(=O)CN(C)C1=O [PP1717], the “NRAS/KRAS (ratio of KD value for NRAS to KD value for KRAS)” value [1] is reported as “A (a compound having 10 or more and less than 20 is denoted as A)” and the “HRAS/KRAS (ratio of KD value for HRAS to KD value for KRAS)” value [2] is reported as “A (a compound having 10 or more and less than 20 is denoted as A)”.
For CCCOC[C@H]1C(=O)N[C@@H]([C@@H](C)CC)C(=O)N(C)CC(=O)N(C)[C@H]2C/C=C\CCN(C2=O)[C@@H](Cc2ccc(C)cc2)C(=O)N(C)CC(=O)N[C@@H](CCc2ccc(C(F)(F)F)c(OC)c2)C(=O)N2C[C@@H](C)C[C@H]2C(=O)N(C)C2(CCC2)C(=O)N(C)[C@@H](C2CCCC2)C(=O)N(C)[C@H](C(=O)N(C)C)CC(=O)N1C [PP2365], the “NRAS/KRAS (ratio of KD value with respect to NRAS to KD value with respect to KRAS)” value [1] was “A (a compound having 10 or more and less than 20 is denoted as A)” and the “HRAS/KRAS (ratio of KD value with respect to HRAS to KD value with respect to KRAS)” value [2] was “B (a compound having 3 or more and less than 10 is denoted as B)”.
For CC[C@H](C)[C@@H]1NC(=O)[C@H](CC(C)C)N(C)C(=O)C[C@@H](C(=O)N2CCOCC2)NC(=O)[C@H](C2CCCC2)N(C)C(=O)C2(CCCC2)NC(=O)[C@@H]2CCCN2C(=O)[C@H](CCc2cc(F)c(C(F)(F)F)c(F)c2)NC(=O)CN(C)C(=O)[C@H](Cc2ccc(C(F)(F)F)cc2)N2CCCCC[C@@H](C2=O)N(C)C(=O)CN(C)C1=O [PP0479], the “NRAS/KRAS (ratio of KD value with respect to GDP-bound NRAS wild-type protein to KD value with respect to KRAS)” value [1] was “B (a compound having 3 or more and less than 10 is denoted as B)” and the “HRAS/KRAS (ratio of KD value with respect to GDP-bound HRAS wild-type protein to KD value with respect to KRAS)” value [2] was “B (a compound having 3 or more and less than 10 is denoted as B)”.
In the case of CC[C@H](C)[C@@H]1NC(=O)[C@H](CC(C)C)N(C)C(=O)C[C@@H](C(=O)N2CCOCC2)N(C)C(=O)[C@H](C2CCCC2)N(C)C(=O)C2(CCCC2)NC(=O)[C@@H]2CCCN2C(=O)[C@H](CCc2cc(F)c(C(F)(F)F)c(F)c2)NC(=O)CN(C)C(=O)[C@H](Cc2ccc(C(F)(F)F)cc2)N2CCCCC[C@@H](C2=O)N(C)C(=O)CN(C)C1=O [PP0490], the “NRAS/KRAS (ratio of KD value with respect to GDP-bound NRAS wild-type protein to KD value with respect to KRAS)” value [1] is reported as “B (a compound having 3 or more and less than 10 is denoted as B)” and the “HRAS/KRAS (ratio of KD value with respect to GDP-bound HRAS wild-type protein to KD value with respect to KRAS)” value [2] is reported as “B (a compound having 3 or more and less than 10 is denoted as B)”.
In the case of CCCOC[C@H]1C(=O)N[C@@H]([C@@H](C)CC)C(=O)N(C)CC(=O)N(C)[C@H]2C/C=C\CCN(C2=O)[C@@H](CC2CCC(F)(F)CC2)C(=O)N(C)CC(=O)N[C@@H](CCc2cc(F)c(C(F)(F)F)c(F)c2)C(=O)N2C[C@H](OCC)C[C@H]2C(=O)NC2(CC(C)(C)C2)C(=O)N(C)[C@@H](C(CC)CC)C(=O)N(C)[C@H](C(=O)N(C)C)CC(=O)N1C [PP2472], the “NRAS/KRAS (ratio of KD value with respect to NRAS to KD value with respect to KRAS)” value [1] is reported as “A (a compound having 10 or more and less than 20 is denoted as A)” and the “HRAS/KRAS (ratio of KD value with respect to HRAS to KD value with respect to KRAS)” value [2] is reported as “A (a compound having 10 or more and less than 20 is denoted as A)”.
